# Values of other authors, collected in US20020132751A1, “Detergent compositions” (Unilever Home & Personal Care USA, Division of Conopco, Inc., priority 2000, published 2002).
# Settings: grams of solid to form a saturated solution in 100 grams of water at 20° C.
row,Compound,Water Solubility (g/100 g)
1,O=BO[O-].[Na+] [Sodium perborate anhydrous],3.7 g/100 g
2,O=P(O)(O)OP(=O)(O)OP(=O)(O)O [Sodium tripolyphosphate anhydrous],15 g/100 g
